What was measured:
Smn protein = Smn protein assay in cultured cells (SMN HTRF); assay type: cell-based, human; settings: 48 hours; for maximum fold (Fold) increase of Smn protein: SMA patient fibroblast cells, 7-point concentration data, fold increase relative to vehicle control (SMN HTRF); for EC1.5x (concentration giving 1.5-fold Smn protein increase): SMA Type 1 patient fibroblast cells (GM03813), 7-point concentration curve, SMN HTRF, concentration producing 1.5 times Smn protein vs DMSO vehicle control, read-out: EC1.5x for Smn protein expression
How it was run: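 Lysates in RIPA with protease inhibitors are incubated overnight at room temperature with HTRF anti-SMN antibodies. EC1.5x is derived from fold increase in ΔF over vehicle.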

[1] = system: SMN2 minigene (full length SMN2 minigene mRNA containing SMN2 exon 7); experiment: SMN2 minigene mRNA splicing RT-qPCR assay in cultured cells; assay type: cell-based, human; settings: HEK293H cells stably transfected with SMN2-A minigene, 24 hours, 7-point concentration curve, 1.5-fold relative to vehicle-treated cells; for EC (1.5-fold): Homo sapiens, HEK293-H, read-out: EC1.5x for production of full length SMN2 mRNA
How it was run: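 Read-out: full-length (exon 7-included) SMN2 minigene mRNA by multiplex RT-qPCR with GAPDH, efficiency-corrected (1+E)^−Ct, GAPDH-normalized and divided by vehicle. Stably transfected HEK293H cells, 24 h compound exposure, duplicates per concentration. Value is EC1.5x, reported as star ranges.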

| Compound | melting point | maximum fold (Fold) increase of Smn protein (Smn protein) | EC (1.5-fold) [1] | EC1.5x (concentration giving 1.5-fold Smn protein increase) (Smn protein) | EC1.5x for production of full length SMN2 mRNA [1] |
| --- | --- | --- | --- | --- | --- |
| Cc1cn2cc(-c3cc4ccc(N5C[C@H]6CCN(C)[C@H]6C5)cc4oc3=O)cc2c(C)n1 [Compound 755, 3-(1,3-dimethylpyrrolo[1,2-a]pyrazin-7-yl)-7-[(3aR,6aR)-1-methylhexahydropyrrolo[3,4-b]pyrrol-5(1H)-yl]-2H-chromen-2-one] | 196 to 198 °C | *** (fold increase between >1.35 and ≤1.5) | < 0.1 µM |  |  |
| Cc1cn2cc(-c3cc4ccc(N5C[C@H]6CN(C)C[C@H]6C5)cc4oc3=O)cc2c(C)n1 [Compound 756, 3-(1,3-dimethylpyrrolo[1,2-a]pyrazin-7-yl)-7-[(3aR,6aS)-5-methylhexahydropyrrolo[3,4-c]pyrrol-2(1H)-yl]-2H-chromen-2-one] | 146 to 150 °C | *** (fold increase between >1.35 and ≤1.5) | < 0.1 µM |  |  |
| Cc1cn2cc(-c3cc4ccc(N5CCC(N6CCOCC6)C5)cc4oc3=O)cc2c(C)n1 (stereo not shown) [Compound 757, 3-(1,3-dimethylpyrrolo[1,2-a]pyrazin-7-yl)-7-[3-(morpholin-4-yl)pyrrolidin-1-yl]-2H-chromen-2-one] | 118 to 122 °C | *** (fold increase between >1.35 and ≤1.5) | 0.3 to 1 µM | 1000 to 3000 nM |  |
| Cc1cn2cc(-c3cc4ccc(N5CCN6C[C@H](O)C[C@H]6C5)cc4oc3=O)nc2c(C)n1 [Compound 758, 3-(6,8-dimethylimidazo[1,2-a]pyrazin-2-yl)-7-[(7R,8aS)-7-hydroxyhexahydropyrrolo[1,2-a]pyrazin-2(1H)-yl]-2H-chromen-2-one] | 285 to 287 °C | * (maximum fold increase of ≤1.2) | 0.3 to 1 µM |  |  |
| CC(=O)O.CC(=O)O.COc1nc(C)cn2cc(-c3cc4ccc(N5CCN(C)[C@H](C)C5)cc4oc3=O)nc12 [Compound 759, 7-[(3R)-3,4-dimethylpiperazin-1-yl]-3-(8-methoxy-6-methylimidazo[1,2-a]pyrazin-2-yl)-2H-chromen-2-one acetate (1:2)] | 227 to 229 °C | *** (fold increase between >1.35 and ≤1.5) | < 0.1 µM |  |  |
| CC(=O)O.Cc1cn2cc(-c3cc4ccc(N5CCN(C)[C@H](C)C5)cc4oc3=O)nc2c(O)n1 [Compound 760, 7-[(3R)-3,4-dimethylpiperazin-1-yl]-3-(8-hydroxy-6-methylimidazo[1,2-a]pyrazin-2-yl)-2H-chromen-2-one acetate] | 304 to 306 °C | *** (fold increase between >1.35 and ≤1.5) | 0.1 to 0.3 µM |  |  |
| Cc1cn2cc(-c3cc4ccc(N5C[C@@H]6[C@H](C5)[C@H]6N(C)C)cc4oc3=O)nc2c(C)n1 [Compound 761, 7-[(1R,5S,6s)-6-(dimethylamino)-3-azabicyclo[3.1.0]hex-3-yl]-3-(6,8-dimethylimidazo[1,2-a]pyrazin-2-yl)-2H-chromen-2-one] | 271 to 274 °C | **** (fold increase between >1.5 and ≤1.65) | < 0.1 µM | < 300 nM |  |
| Cc1cn2cc(-c3cc4ccc(N5CCN(C6CC6)CC5)cc4oc3=O)nc2c(C)n1 [Compound 762, 7-(4-cyclopropylpiperazin-1-yl)-3-(6,8-dimethylimidazo[1,2-a]pyrazin-2-yl)-2H-chromen-2-one] | 263 to 266 °C | **** (fold increase between >1.5 and ≤1.65) | < 0.1 µM | 300 to 1000 nM |  |
| Cc1cc2cc(-c3cc4ccc(N5CCN(C)CC5)cc4oc3=O)oc2c(C)n1 [Compound 763, 3-(5,7-dimethylfuro[2,3-c]pyridin-2-yl)-7-(4-methylpiperazin-1-yl)-2H-chromen-2-one] | 229 to 232 °C | **** (fold increase between >1.5 and ≤1.65) | < 0.1 µM | < 300 nM |  |
| Cc1nc(Cl)cn2cc(-c3cc4ccc(N5CCN(C)CC5)cc4oc3=O)nc12 [Compound 764, 3-(6-chloro-8-methylimidazo[1,2-a]pyrazin-2-yl)-7-(4-methylpiperazin-1-yl)-2H-chromen-2-one] | 217 to 220 °C | ** (fold increase between >1.2 and ≤1.35) | < 0.1 µM |  |  |
| Cc1nc(Cl)cn2cc(-c3cc4ccc(N5CC[C@H](N(C)C)C5)cc4oc3=O)nc12 [Compound 765, 3-(6-chloro-8-methylimidazo[1,2-a]pyrazin-2-yl)-7-[(3S)-3-(dimethylamino)pyrrolidin-1-yl]-2H-chromen-2-one] | 210 to 215 °C | * (maximum fold increase of ≤1.2) | 0.3 to 1 µM |  |  |
| CCN1CCN(c2ccc3cc(-c4cn5cc(Cl)nc(C)c5n4)c(=O)oc3c2)CC1 [Compound 766, 3-(6-chloro-8-methylimidazo[1,2-a]pyrazin-2-yl)-7-(4-ethylpiperazin-1-yl)-2H-chromen-2-one] | 228 to 230 °C | *** (fold increase between >1.35 and ≤1.5) | < 0.1 µM |  |  |
| Cc1cn2cc(-c3cc4ccc(N5CCN6C[C@H](O)C[C@H]6C5)cc4oc3=O)cc2c(C)n1 [Compound 767, 3-(1,3-dimethylpyrrolo[1,2-a]pyrazin-7-yl)-7-[(7R,8aS)-7-hydroxyhexahydropyrrolo[1,2-a]pyrazin-2(1H)-yl]-2H-chromen-2-one] | 185 to 188 °C | ***** (fold increase >1.65) | < 0.1 µM | < 300 nM |  |
| Cc1cn2cc(-c3cc4ccc(N5CCN(C(C)C)[C@@H](C)C5)cc4oc3=O)cc2c(C)n1 [Compound 768, 3-(1,3-dimethylpyrrolo[1,2-a]pyrazin-7-yl)-7-[(3S)-3-methyl-4-(propan-2-yl)piperazin-1-yl]-2H-chromen-2-one] | 153 to 156 °C | **** (fold increase between >1.5 and ≤1.65) | < 0.1 µM | < 300 nM |  |
| Cc1nc2ccc(-c3cc4ccc(N5CCCNCC5)cc4oc3=O)cc2s1 [Compound 771, 7-(1,4-diazepan-1-yl)-3-(2-methyl-1,3-benzothiazol-6-yl)-2H-chromen-2-one] | 228 to 230 °C | * (maximum fold increase of ≤1.2) | 1 to 3 µM |  |  |
| Cc1cc2cc(-c3cc4ccc(N5CCN(CCO)CC5)cc4oc3=O)oc2c(C)n1 [Compound 774, 3-(5,7-dimethylfuro[2,3-c]pyridin-2-yl)-7-[4-(2-hydroxyethyl)piperazin-1-yl]-2H-chromen-2-one] | 203 to 205 °C | **** (fold increase between >1.5 and ≤1.65) | < 0.1 µM | < 300 nM |  |
| Cc1cc2cc(-c3cc4ccc(N5CCCN(C)CC5)cc4oc3=O)oc2c(C)n1 [Compound 775, 3-(5,7-dimethylfuro[2,3-c]pyridin-2-yl)-7-(4-methyl-1,4-diazepan-1-yl)-2H-chromen-2-one] | 243 to 245 °C | **** (fold increase between >1.5 and ≤1.65) | < 0.1 µM | < 300 nM |  |
| CC(=O)O.CCN1CCN(c2ccc3cc(-c4ccc5nc(C)sc5c4)c(=O)oc3c2)C[C@@H]1C [Compound 777, 7-[(3S)-4-ethyl-3-methylpiperazin-1-yl]3-(2-methyl-1,3-benzothiazol-6-yl)-2H-chromen-2-one acetate] | 180 to 182 °C | * (maximum fold increase of ≤1.2) | 3 to 30 µM |  |  |
| CC(=O)O.CC[C@H]1CN(c2ccc3cc(-c4cn5cc(C)nc(C)c5n4)c(=O)oc3c2)CCN1C [Compound 778, 3-(6,8-dimethylimidazo [1,2-a]pyrazin-2-yl)-7-[(3S)-3-ethyl-4-methylpiperazin-1-yl]-2H-chromen-2-one acetate] | 170 to 172 °C | ***** (fold increase >1.65) | < 0.1 µM | < 300 nM |  |
| CC(=O)O.CC(=O)O.CC[C@H]1CN(c2ccc3cc(-c4cn5cc(C)nc(C)c5n4)c(=O)oc3c2)CCN1CC [Compound 779, 7-[(3S)-3,4-diethylpiperazin-1-yl]-3-(6,8dimethylimidazo[1,2-a]pyrazin-2-yl)-2H-chromen-2-one acetate (1:2)] | 170 to 174 °C | ***** (fold increase >1.65) | < 0.1 µM | < 300 nM |  |
| Cc1cn2cc(-c3cc4ccc(N5C[C@H]6CCCN[C@H]6C5)cc4oc3=O)nc2c(C)n1 [Compound 781, 3-(6,8-dimethylimidazo[1,2-a]pyrazin-2-yl)-7-[(4aR,7aR)-octahydro-6H-pyrrolo[3,4-b]pyridin-6-yl]-2H-chromen-2-one] | 246 to 252 °C | ** (fold increase between >1.2 and ≤1.35) |  |  | ***** (EC1.5x≤0.1 μM) |
